Key:
[1] = test system: tramadol metabolism (O-desmethyl tramadol production) in rat liver microsomes; test: Liver microsomal incubation assay: inhibition of tramadol metabolism (O-desmethyl tramadol production) in RLM; assay type: in vitro ADME; settings: rat, tramadol 60 µM
Description: (§1) All the substance meet the requirements for analysis.
(§2) To obtain the Michaelis kinetic parameters of tramadol in RLM and HLM, a 200 µL incubation system was established containing 2 µL RLM or HLM (0.2 mg/mL), 186 µL 1xPBS buffer (pH = 7.4), 2 µL tramadol (10–500 µM), and 10 µL NADPH (1 mM). The mixture was pre-incubated for 5 min without NADPH in a water bath shaking at 37 °C. Then, NADPH was added to initiate the reaction, and the mixture was incubated for another 30 min. The reaction was terminated by adding 400 µL of cold ACN and 20 µL of IS (500 ng/mL).
(§3) For drug-interaction screening, 100 µM of each drug (1.6 µL) was added to the system, and added PBS to the final volume of 200 uL. Tramadol concentration was set at 60 µM according to the Km.
(§4) To determine the half-maximal inhibitory concentration (IC50), the concentration of crizotinib was set at 0.01, 0.1, 1, 10, 25, 50, and 100 µM, while the concentration of tramadol was constant at 60 µM in RLM or 100 µM in HLM (according to Km).
(§5) All data were presented as mean ± SD (standard deviation).

[2] = test system: tramadol metabolism in rat liver microsomes (RLM); test: as above; assay type: in vitro ADME; settings: RLM
Description: as §1, §2, §3, §4, §5

[3] = Pharmacokinetics of tramadol and O-desmethyl tramadol in SD rats with or without crizotinib; settings: single dose of crizotinib 45 mg/kg, tramadol 20 mg/kg
Excerpt: Ultra-performance liquid chromatography-tandem mass spectrometry (UPLC-MS/MS) was utilized to measure the concentration of both tramadol and O-desmethyl tramadol. Separation was achieved using a Waters Acquity UPLC BEH C18 column, with dimensions of 2.1 mm × 50 mm and 1.7-µm particle size (Waters Corp., Milford, MA, USA), and quantitation was completed using a Waters XEVO TQD triple quadruple mass spectrometer. The mobile phase was composed of 0.1% formic acid (A) and ACN (B), and the gradient elution was carried out with a flow rate of 0.4 mL/min, following the procedure: 90–10% A (0–1.4 min), 10–90% A (1.4–1.5 min), and 90% A (1.5–2.0 min). Positive mode was used to detect the analytes with the following transitions: m/z 264.2 →58.0, m/z 250.2 →58.2, and m/z 285.0 →154.0 for tramadol, O-desmethyl tramadol, and diazepam (used as an internal standard, IS), respectively. The collision energy was 20 V for tramadol and O-desmethyl tramadol, and 25 V for diazepam. The standard for tramadol and O-desmethyl tramadol were dissolved in a small amount of DMSO (the concentration was 1 mg/mL) then diluted with acetonitrile (the final concentration was 1 ng/mL–1,000 ng/mL). Diazepam was diluted with methanol gradually to 500 ng/mL).
SD male rats (280 ± 15 g) were purchased from the Shanghai Animal Experimental Center. Before the experiment, the rats were kept in the animal room for two weeks with adequate water and food in order to adapt to the new environment. The room temperature was kept at 20–25 °C and the humidity was kept at 50%–65%. The change period of light and dark conditions was 12 h, which simulates the change of day and night. All animal experiments were approved by the Ethics Committee of Wenzhou Medical University (Approval number: xmsq2022-0621).
Generally speaking, only when at least five or more animals are involved in the experiment can the results be convincing. Thus, twenty SD rats were randomly divided into four groups with five animals per group: group A received a single dose of 20 mg/kg of tramadol; group B received a single dose of 45 mg/kg of crizotinib and 20 mg/kg of tramadol; group C received multiple doses of 0.5% carboxymethylcellulose sodium salt (CMC-Na) for 7 days and a single dose of 20 mg/kg of tramadol; and group D received multiple doses of 45 mg/kg of crizotinib for 7 days and a single dose of 20 mg/kg of tramadol. Prior to the experiment, all rats were fasted for 12 h but allowed free access to water. Once the experiment began, 0.5% CMC-Na and crizotinib were administered to groups C and D for 7 days, respectively, then to groups A and B on the last day of the experiment. After 30 min, all rats were orally administered 20 mg/kg of tramadol. Blood samples were collected from the tail vein at 5 min, 15 min, 30 min, 1 h, 2 h, 3 h, 4 h, 6 h, 8 h, 10 h, 12 h, and 24 h following tramadol administration. […] The samples were centrifuged at 2400 × g for 10 min to obtain serum. Each 50 µL serum was mixed with 150 µL ACN and 20 µL IS (500 ng/mL). After vortexing for 2 min and centrifugation at 16200 × g for 10 min at 4 °C, the supernatant was obtained, then we used UPLC-MS/MS analysis to detect the concentration of tramadol and O-desmethyl tramadol. After the experiment, all the animals were euthanized by 5% isoflurane inhalation anesthesia.
The Michaelis–Menten, IC50, and Lineweaver-Burk plots were generated using GraphPad Prism 6.0 software (GraphPad Software, Boston, MA, USA) with corresponding values for Km, IC50, and Ki (inhibition constant).

[4] = Serum biochemical analysis (ALT, AST); assay type: in vivo, Sprague-Dawley rats; settings: vs control
Description: (§6) Nine rats were randomly divided into three groups (n = 3): group E received 0.5% CMC-Na for 7 days; group F received 45 mg/kg crizotinib for 6 days; and group G received 45 mg/kg of crizotinib for 7 days. […] The blood, liver, kidney, and small intestine were harvested within 10 min and flash-frozen in liquid nitrogen before being transferred to −80 °C for later use.
Serum was collected after centrifugation of blood sample at 2400 × g for 5 min at 4 °C. The levels of ALT and AST were detected according to the protocol of ALT and AST activity assay kits.

[5] = test system: total CYP in rat liver microsomes; test: Carbon monoxide differential UV spectrophotometric quantification of total CYP; assay type: in vitro ADME; settings: RLM from crizotinib-treated rats (45 mg/kg); CO quantitative method
Description: as §6
The CO quantitative method was utilized to measure the total quantity of CYP in rat liver microsomes. The microsomes were transferred to a 1.5 mL centrifuge tube and CO gas was introduced for 60 s. Next, sodium dithionite powder was added and mixed thoroughly. After two minutes, the absorbance of the liquid was measured at 450 nm and 490 nm ultraviolet wavelengths using an ultraviolet and visible spectrophotometer to calculate the total amount of CYP.

[6] = crizotinib 45 mg/kg for consecutive 7 days
[7] = crizotinib 45 mg/kg single dose

Q: Which inhibition at 30 min, 100 µM ([1]; pH 7.4, RLM, 100 µM of each drug, vs control group, read-out: inhibitory rate on tramadol metabolism (production of O-desmethyl tramadol)) does the source give for `C[C@@H](Oc1cc(-c2cnn(C3CCNCC3)c2)cnc1N)c1c(Cl)ccc(F)c1Cl` [crizotinib] here?
A: 97.2%

Q: And the IC50 at 30 min ([1]; pH 7.4, RLM, crizotinib 0.01-100 µM)?
A: 8.74 ± 0.18 µM

Q: What about the “inhibition mode of tramadol metabolism” value ([2]; Lineweaver-Burk plot) of the same compound?
A: non-competitive

Q: What about the Ki ([2]; Lineweaver-Burk, crizotinib 0, 4, 8, 16 µM, tramadol 15-120 µM) of the same compound?
A: 4.17 µM

Q: And the “effect on pharmacokinetic parameters of O-desmethyl tramadol” value [3]?
A: no significant differences

Q: And the “level of serum ALT” value [4, 6]?
A: increased significantly

Q: What about the “level of serum AST” value [4, 6] of the same compound?
A: increased significantly

Q: What about the “level of serum ALT” value [4, 7] of the same compound?
A: no significant change

Q: What about the “level of serum AST” value [4, 7] of the same compound?
A: no significant change

Q: What about the “total amount of CYP” value [5] of the same compound?
A: decreased
